Columns and labels:
apple fruit = experiment: Headspace volatile ester emissions of ripening apple fruit treated with AHAS inhibitor; assay type: in vivo, Malus x domestica Borkh.; design: key to butyl acetate emissions compared to control / hexyl acetate emissions compared to control / ethyl acetate emissions compared to control / propyl acetate emissions compared to control: —: Dash indicates no significant difference between treatments; details: for 2-methylbutyl acetate (ile) emissions compared to control / 2-methylpropyl acetate (val) emissions compared to control / butyl acetate emissions compared to control / ethyl acetate emissions compared to control / hexyl acetate emissions compared to control / pentyl acetate emissions compared to control / propyl acetate emissions compared to control / sum of anteiso- and iso-branched-chain esters emissions compared to control: 1 mM daily
Protocol: Whole apple fruit, freshly harvested and at an early stage of ripening (‘ripening’), were held at room temperature (22° C.) and rubbed daily with 3 mL of a freshly made 1mM solution of the inhibitor rimsulfuron (N-((4,6-dimethoxypyrimidin-2-yl)aminocarbonyl)-3-(ethylsulfonyl)-2-pyridinesulfonamide, made from DuPont MATRIX® SG, 25% w/w active ingredient; 0.1% Tween 20) or water solution containing 0.1% Tween 20 before preparation with further treatments. Flowering quince fruit were smaller than the apple fruit and had 2 mL of the control and treatment solutions applied daily at 22° C. ‘Gala’, ‘Empire’, and ‘Jonagold’ apple fruit were treated for four, nine, and seven days before further preparation, respectively. Flowering quince fruit were treated for six days before analysis. Headspace volatile emissions were monitored for three or four representative fruits during the incubation/treatment period to determine appropriate times for further treatments. During method testing, 1 mM solutions of the imidazolinone imazamox was also assessed with apple fruit (2-[4,5-dihydro-4-methyl-4-(1-methylethyl)-5-oxo-1H-imidazol-2-yl]-5-(methoxymethyl)-3-pyridinecarboxylic acid, made from RAPTOR®, 12.1% w/w active ingredient; 0.1% Tween 20).
Headspace volatiles from small tissue samples incubated in 22 mL vials were adsorbed for 30 s using a solid-phase micro extraction (SPME) fiber (65 μm PDMS-DVB; Supelco Analytical). The SPME fiber was then directly desorbed for 1 min in the injection port of a gas chromatograph (GC; HP-6890, Hewlett-Packard) coupled to a time-of-flight mass spectrometer (MS; Pegasus II, LECO). Whole fruits and banana slices were incubated for 20 min at room temperature (22° C.) in 1-L sealed Teflon jars before a 15-s, or 3-min adsorption and 1- or 2-min desorption. Adsorption times were adjusted to ensure instrument responses were in the linear range. All desorbed volatiles were cryofocused at the beginning of the column by immersing said region of the column in liquid nitrogen. After the desorption period, the run was initiated and the liquid nitrogen removed.
The conditions of the system were as follows. Injection port: 200° C., splitless, ultra-purified helium (99.999%) carrier gas, front inlet flow 1.5 mL·min^−1 constant, 10 mL·min^−1 purge flow, 11.5 mL·min^−1 total flow. Oven: initial temperature 40° C. for 0 min, ramped by 43° C.·min^−1 to 185° C. for 0 min. Column: HP-5 MS, 30 m×0.25 mm i.d., 0.25 μm film thickness (Agilent). Transfer line temperature 225° C. MS: Electron ionization (−70 eV), ion source temperature 200° C., solvent delay 50 sec, m/z range 29 to 400, detector voltage 1500 V, data collection rate 20 Hz.
Compounds were identified by comparison of the retention time and mass spectrum against authenticated reference standards and spectra (National Institute of Standards and Technology Mass Spectral Search Program Version 2.0, 2001). Volatiles were quantified by calibration with a standard of 59 authenticated, high-purity compounds (Sigma-Aldrich Co. and Fluka Chemical) including the target compounds. The standard was made by placing 0.5 μL of an equal-part mixture of the neat compounds onto a disc of filter paper before quickly placing the filter paper into a 4-L sealed flask fitted with a Mininert valve (for SPME fiber access, and allowed to vaporize for at least 6 hours. SPME adsorption and desorption times of the standard matched that of the samples quantified (e.g., 30-s adsorption, 1 min desorption when quantifying samples in 22-mL vials).
Statistical analysis was performed using SciPy (v1.6.2), RStudio (v2023.03.0+386), or Microsoft Excel (v16.89). Against a specified value: one-tailed t-test Against two treatments: paired t-test for banana, two-sample t-test for apple and flowering quince. Against more than two treatments: Tukey's test following significant ANOVA. Analyses of branched-chain amino acids were one-tailed, all other metabolites were two-tailed. […]

[1] = tested on: ripe ‘Red Delicious’ apple fruit; experiment: Headspace 2-methylbutanoate esters of ripe apple fruit, time course; assay type: in vivo, Malus x domestica Borkh.; details: within three days of treatment
Protocol: ‘Red Delicious’ apple fruit held in refrigerated air for 5 months (see above) plus 1 day at 22° C. and at an advanced ripeness stage (‘ripe’) were treated with rimsulfuron (1 mM) with 0.2% Tween 20 on day 0 of the study and for the next three consecutive days as above described. The fruit were evaluated daily for volatile emissions (see below) for eight days. On days 0, 2, 4, and 7, representative treated and untreated fruit were selected for tissue collection for metabolite analysis (see below). On day 7, samples of fruit peel were fed, as described above, with water or 20 mM isoleucine or α-keto-β-methylvalerate.
Headspace volatiles from small tissue samples incubated in 22 mL vials were adsorbed for 30 s using a solid-phase micro extraction (SPME) fiber (65 μm PDMS-DVB; Supelco Analytical). The SPME fiber was then directly desorbed for 1 min in the injection port of a gas chromatograph (GC; HP-6890, Hewlett-Packard) coupled to a time-of-flight mass spectrometer (MS; Pegasus II, LECO). […]
Compounds were identified by comparison of the retention time and mass spectrum against authenticated reference standards and spectra (National Institute of Standards and Technology Mass Spectral Search Program Version 2.0, 2001). Volatiles were quantified by calibration with a standard of 59 authenticated, high-purity compounds (Sigma-Aldrich Co. and Fluka Chemical) including the target compounds. […]

[2] = ripening Empire apple peel, nine days
[3] = ripening Gala apple peel, four days
[4] = ripening Jonagold apple peel, seven days

## CCS(=O)(=O)c1cccnc1S(=O)(=O)NC(=O)Nc1nc(OC)cc(OC)n1 [rimsulfuron, N-((4,6-dimethoxypyrimidin-2-yl)aminocarbonyl)-3-(ethylsulfonyl)-2-pyridinesulfonamide]
Apple fruit; all three cultivars (Gala, Empire, Jonagold), on average
  concentration of pentyl acetate, more abundant when treated: 1.63 fold
Apple fruit; [2]
  2-methylbutyl acetate (ile) emissions compared to control: 1.9 ± 0.6%
  2-methylpropyl acetate (val) emissions compared to control: 27.3 ± 5.4%
  butyl acetate emissions compared to control: —
  ethyl acetate emissions compared to control: 61.4 ± 7.9%
  hexyl acetate emissions compared to control: —
  pentyl acetate emissions compared to control: 161.9 ± 16.0%
  propyl acetate emissions compared to control: 53.8 ± 8.5%
  sum of anteiso- and iso-branched-chain esters emissions compared to control: 0.8 ± 0.2%
Apple fruit; [3]
  2-methylbutyl acetate (ile) emissions compared to control: 27.0 ± 6.3%
  2-methylpropyl acetate (val) emissions compared to control: 36.4 ± 5.0%
  butyl acetate emissions compared to control: —
  ethyl acetate emissions compared to control: 57.7 ± 9.3%
  hexyl acetate emissions compared to control: —
  pentyl acetate emissions compared to control: 155.3 ± 17.5%
  propyl acetate emissions compared to control: —
  sum of anteiso- and iso-branched-chain esters emissions compared to control: 19.0 ± 4.5%
Apple fruit; ripening Gala, Empire and Jonagold
  effect on butyl acetate: no discernible effect
Apple fruit; ripening Gala, Empire and Jonagold apple fruits, on average
  reduction of the total content of anteiso-branched-chain esters in the headspaces: 91.2%
Apple fruit; ripening Gala, Empire and Jonagold, all three cultivars
  2-methylpropyl acetate in headspace following treatment: reduced
Apple fruit; [4]
  2-methylbutyl acetate (ile) emissions compared to control: 16.1 ± 1.4%
  2-methylpropyl acetate (val) emissions compared to control: 67.6 ± 4.1%
  butyl acetate emissions compared to control: —
  ethyl acetate emissions compared to control: —
  hexyl acetate emissions compared to control: 162.7 ± 19.2%
  pentyl acetate emissions compared to control: 172.3 ± 20.2%
  propyl acetate emissions compared to control: —
  sum of anteiso- and iso-branched-chain esters emissions compared to control: 6.5 ± 0.5%
[1]
  headspace content of 2-methylbutanoate esters, of control fruits: 15.0%
